# Like-named read-outs stand apart in the source and are kept apart here.
# What was measured:
# [1] = system: βFGF induced corneal neovascularization; details: for median inhibition of the area of vascularized cornea: day 8, percent of median control
# Description: Pellets for implantation into rabbit corneas were made by mixing 110 μl of saline containing 12 μg of recombinant βFGF (Takeda Pharmaceuticals-Japan) with 40 mg of sucralfate (Bukh Meditec-Denmark); this suspension was added to 80 μl of 12% hydron (Interferon Sciences) in ethanol. 10 μl aliquots of this mixture was then pipetted onto teflon pegs and allowed to dry producing approximately 17 pellets. A pellet was implanted into corneal micropockets of each eye of an anesthetized female New Zealand white rabbit, 2 mm from the limbus followed by topical application of erythromycin ointment onto the surface of the cornea. The animals were fed daily from 2 days post-implantation by gastric lavage with either drug suspended in 0.5% carboxymethyl cellulose or 0.5% carboxymethyl cellulose alone. Thalidomide was purchased from Andrulus Pharmaceutical (Maryland) and the EM-12 and Supidimide were kindly provided by Grunenthal GMBH (Germany). The animals were examined with a slit lamp every other day in a masked manner by the same corneal specialist. The area of corneal neovascularization was determined by measuring with a reticule the vessel length (L) from the limbus and the number of clock hours (C) of limbus involved. A formula was used to determine the area of a circular band segment: C/12*3.1416 [r^2−(r−L)^2] where r=6 mm the measured radius of the rabbit cornea.
# Pellets containing βFGF and sucralfate were implanted into micropockets of both corneas of rabbits according to Example II. […] The area of corneal neovascularization was measured from day 4 through day 12. Day 8 measurements were used for comparison between groups. […] Statistical analysis was performed with ANOVA with ranked data to account for interexperimental variation and to guard against a non-normal distribution of data (i.e. outliers) by utilizing a nonparametric method.
# B16-BL6 melanoma cells = experiment: B16-BL6 melanoma pulmonary metastasis model; type: in vivo, C57B1/6 mice
# Description: (§1) B16-BL6 melanoma cells (5×10^4) were injected intravenously into the tail veins of C57B1/6 mice. Three days later, the mice were treated intraperitoneally with increasing doses of thalidomide or 2-phthalimidinoglutaric acid (EM-138) on alternate days. Fourteen days after tumor cell inoculation, the lungs were removed from the mice and the surface pulmonary metastases were counted.
# as §1, with “orally” for “intraperitoneally”
# B16-BL6 melanoma cells (5×10^4) were injected intravenously into the tail veins of C57B1/6 mice. Three days later, the mice received a gavage treatment with 0.8 mmol/kg of 2-phthalimidinoglutaric acid (EM-138). The mice received either a single treatment, five treatments on alternate days, or one treatement every day for eleven days. Fourteen days after tumor cell inoculation, the lungs were removed from the mice and the surface pulmonary metastases were counted.
# B16-BL6 melanoma cells (5×10^4) were injected intravenously into the tail veins of C57B1/6 mice. Three days later, treatment began. The mice received intraperitoneal injections of thalidomide (0.4 mmol/kg), thalidomide (3.0 mmol/kg) or 2-phthalimidinoglutaric acid (EM-138) (0.4 mmol/kg) every day. Fourteen days after tumor cell inoculation, the lungs were removed from the mice and the surface pulmonary metastases were counted.
# [2] = Stability compared with thalidomide; type: physicochemical
# Crohn's disease = experiment: Treatment of a patient with Crohn's disease; type: in vivo, human; details: 100 mg twice a day orally, one week
# Description: A patient with Crohn's disease was treated using the methods of the present invention. […] Thalidomide was orally administered to them at a dosage of 100 mg twice a day.
# [3] = 0.4 mmol/kg intraperitoneal every day from day 3, lungs day 14
structure (smiles),measurement,setting,value
O=C1CCC(N2Cc3ccccc3C2=O)C(=O)N1 (stereo not shown) [EM-12],inhibition in rabbit cornea assay,[1]; 100 mg/kg/day,21%
same,median inhibition of the area of vascularized cornea,[1]; 200 mg/kg orally,42%
same,inhibition in rabbit cornea assay,[1]; 200 mg/kg/day,43%
"O=C(O)CCC(C(=O)O)N1Cc2ccccc2C1=O (stereo not shown) [EM-138, 2-phthalimidinoglutaric acid]","T/C, ratio of lung metastases of treated vs. control animals",B16-BL6 melanoma cells; [3],0.2
same,reduction of pulmonary metastases,B16-BL6 melanoma cells; [3],80%
same,inhibition of B16-BL6 metastasis,B16-BL6 melanoma cells; 0.8 mmol/kg/day,over 90%
same,inhibition of metastasis after a single administration,B16-BL6 melanoma cells; single administration,significantly inhibits metastasis
same,stability relative to thalidomide,[2],more stable than thalidomide
O=C1NCCCC1N1C(=O)c2ccccc2S1(=O)=O (stereo not shown) [Supidimide],activity in the rabbit cornea assay (in words),[1]; 200 mg/kg orally,no activity
same,"area of corneal neovascularization, % of control","[1]; 200 mg/kg orally, day 8",107 % of control
O=C1CCC(N2C(=O)c3ccccc3C2=O)C(=O)N1 (stereo not shown) [thalidomide],density of vessel ingrowth,[1]; 200 mg/kg orally,markedly reduced
same,onset of inhibition of angiogenesis,[1]; 200 mg/kg orally (FIG. 7),seen after only two doses
same,"inhibition of the area of vascularized cornea, range in three experiments","[1]; 200 mg/kg orally, begun day 2, day 8 measurements",30-51%
same,median inhibition of the area of vascularized cornea,[1]; 200 mg/kg orally,36%
same,inhibition of pulmonary metastases (in words),B16-BL6 melanoma cells; 0.4 mmol/kg intraperitoneal every day,minimal inhibition
same,"T/C, ratio of lung metastases of treated vs. control animals",B16-BL6 melanoma cells; [3],0.9
same,inhibition of pulmonary metastases (in words),B16-BL6 melanoma cells; 3.0 mmol/kg intraperitoneal every day,inhibited metastases
same,"gastrointestinal symptoms, including diarrhea and cramping",Crohn's disease,lessened
same,skin lesion on the lower leg,Crohn's disease,resolved
